Experiments:
TNF-α = test: In vitro measurement of TNF-α in human PBMC; format: cell-based; conditions: at 1 μM, LPS
Procedure: In Vitro Measurement of Tumor Necrosis Factor Alpha (TNF-α)
This assay determines the effect of test compounds on the production of TNF-α in human Peripheral Blood Mononuclear Cells (PBMC). Compounds were tested for their ability to inhibit the activity of TNF-α in human PBMC. PBMC were isolated from blood (from healthy volunteers) using BD Vacutainer CPT™ (Cell preparation tube, BD Bio Science) and suspended in RPMI medium (Physiol. Res. 52; 593-598, 2003). The test compounds were pre-incubated with PBMC (0.5 million/incubation well) for 15 minutes at 37° C. and then stimulated with Lipopolysaccharide (Escherichia coli: B4; 1 μg/ml) for 18 hours at 37° C. in 5% CO2. The levels of TNF-α in the cell culture medium were estimated using enzyme linked Immunosorbent assay performed in a 96 well format as per the procedure of the manufacturer (R&D Systems, Inc. 614 McKinley Place Nebr., Minneapolis, Minn. 55413, USA).

DU145 = test: Anti-cancer screen (MTT), DU145; format: cell-based; conditions: Homo sapiens, DU-145, 48 hours
[1] = tested on: Carrageenan induced paw edema in rat; test: Carrageenan induced paw edema test in rat; format: in vivo; conditions: 5 mg/kg oral; male wistar rats; 3 hours after carrageenan
Procedure: Carrageenan Induced Paw Edema Test in Rat
The carrageenan paw edema test was performed as described by Winter et al (Proc. Soc. Exp. Biol. Med, 111, 544, 1962). Male wistar rats were selected with body weights equivalent within each group. The rats were fasted for eighteen hours with free access to water. The rats were dosed orally with the test compound suspended in vehicle containing 0.25% carboxymethylcellulose and 0.5% Tween 80. The control rats were administered with vehicle alone. After an hour, the rats were injected with 0.1 ml of 1% Carrageenan solution in 0.9% saline into the sub-plantar surface of the right hind paw. Paw volume was measured using digital plethysmograph before and after 3 hours of carrageenan injection. The average of foot swelling in drug treated animals was compared with that of control animals. Anti-inflammatory activity was expressed as the percentage inhibition of edema compared with control group [Arzneim-Forsch/Drug Res., 43 (I), 1,44-50,1993; Otterness and Bliven, Laboratory Models for Testing NSAIDs, In Non-Steroidal Anti-Inflammatory Drugs, (J. Lombardino, ed. 1985)].

IL-1β = test: In vitro measurement of IL-1β in human PBMC; format: cell-based; conditions: Conc. 0.1 μM, LPS
Summary of the method: (§1)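 Human PBMC (0.5 million/well) preincubated with compound 15 min at 37° C., then stimulated with E. coli LPS (1 μg/ml) for 18 h at 37° C. Cytokine in culture medium quantified by ELISA.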

NCI-H460 = test: Anti-cancer screen (MTT), NCI-H460; format: cell-based; conditions: Homo sapiens, NCI-H460; 48 hours, MTT
IL-6 = test: In vitro measurement of IL-6 in human PBMC; format: cell-based; conditions: Conc. 0.1 μM, LPS
Summary of the method: as §1

For `CNc1nc(-c2ccncc2)nc(SC)c1C(=O)Nc1ccc(OC)cc1` [Example 14, N-(4-Methoxyphenyl)-4-(methylamino)-6-(methylthio)-2-pyridin-4-ylpyrimidine-5-carboxamide], the inhibition at 1 µM (TNF-α) was 36.8%, the GI50 (DU145) was 2.75 µM and the “Inhibition of edema (%) at 5 mg/kg” value [1] was 31.02%. The “IL-1β Inhibition (%)” value (IL-1β) was “Not active”, the GI50 (NCI-H460) was 5.15 µM and the inhibition at 0.1 µM (IL-6) was 28.2%.

From patent US7759350B2, “Pyrimidine carboxamides” (Orchid Research Laboratories Ltd., priority 2005, dated 2010)
